#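 Values below derive from 48-hour exposures of cells grown in 96-well plates, with endpoints linearly interpolated between the two concentrations bracketing the appropriate inhibition level. GI50: concentration for 50% inhibition of growth. The concentration for full growth arrest is given as TGI.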
# Experiments:
# Assay in all cases: NCI tumour cell line growth inhibition, 48 h
# DU-145 prostate = system: DU-145 prostate
# BT-549 breast = system: BT-549 breast
# A549 NSCLC = system: A549 NSCLC
# SW-620 colon = system: SW-620 colon
# SK-MEL-28 melanoma = system: SK-MEL-28 melanoma
# SR leukemia = system: SR leukemia
# M14 melanoma = system: M14 melanoma
# HCC-2998 colon = system: HCC-2998 colon
# HL-60(TB) leukemia = system: HL-60(TB) leukemia
# UACC-62 melanoma = system: UACC-62 melanoma
# SK-MEL-5 melanoma = system: SK-MEL-5 melanoma
# TK-10 renal = system: TK-10 renal
# UACC-257 melanoma = system: UACC-257 melanoma
# RXF 393 renal = system: RXF 393 renal
# RPMI-8226 leukemia = system: RPMI-8226 leukemia
# HS 578T breast = system: HS 578T breast
# NCI-H460 lung = system: NCI-H460 lung
# 786-0 renal = system: 786-0 renal
# LOX IMVI melanoma = system: LOX IMVI melanoma
# CAKI-1 renal = system: CAKI-1 renal
# KM12 colon = system: KM12 colon
# EKVX NSCLC = system: EKVX NSCLC
# OVCAR-3 ovarian = system: OVCAR-3 ovarian
# OVCAR-8 ovarian = system: OVCAR-8 ovarian
# T-47D breast = system: T-47D breast
# SK-OV-3 ovarian = system: SK-OV-3 ovarian
# NCI-H23 lung = system: NCI-H23 lung
# SF-295 CNS = system: SF-295 CNS
# ACHN renal = system: ACHN renal
# SNB-75 CNS = system: SNB-75 CNS
# SNB-19 CNS = system: SNB-19 CNS
# OVCAR-4 ovarian = system: OVCAR-4 ovarian
# MOLT-4 leukemia = system: MOLT-4 leukemia
# HOP-62 NSCLC = system: HOP-62 NSCLC
# MDA-MB-435 = system: MDA-MB-435
# IGROV1 ovarian = system: IGROV1 ovarian
# HCT-116 colon = system: HCT-116 colon
# MDA-MB-231 breast = system: MDA-MB-231 breast
# SK-MEL-2 melanoma = system: SK-MEL-2 melanoma
# K-562 leukemia = system: K-562 leukemia
# SF-268 CNS = system: SF-268 CNS
# PC-3 prostate = system: PC-3 prostate
# MALME-3M melanoma = system: MALME-3M melanoma
# SF-539 CNS = system: SF-539 CNS
# HT29 colon = system: HT29 colon
# HCT-15 colon = system: HCT-15 colon
# NCI/ADR-RES ovarian = system: NCI/ADR-RES ovarian
# CCRF-CEM leukemia = system: CCRF-CEM leukemia
# NCI-H226 lung = system: NCI-H226 lung
# A498 renal = system: A498 renal
# UO-31 renal = system: UO-31 renal
# OVCAR-5 ovarian = system: OVCAR-5 ovarian
# SN12C renal = system: SN12C renal
# COLO 205 colon = system: COLO 205 colon
# NCI-H522 lung = system: NCI-H522 lung
# U251 CNS = system: U251 CNS
# MCF7 breast = system: MCF7 breast
# HOP-92 NSCLC = system: HOP-92 NSCLC
compound,measurement,setting,value
CC(C)CSc1nc(Nc2ccccc2)c(C#N)c(-c2ccc(F)cc2)n1,GI50,DU-145 prostate,11 µM
same,TGI,DU-145 prostate,27.7 µM
same,GI50,BT-549 breast,7.24 µM
same,TGI,BT-549 breast,32.3 µM
same,GI50,A549 NSCLC,1.71 µM
same,TGI,A549 NSCLC,18.8 µM
same,GI50,SW-620 colon,8.63 µM
same,TGI,SW-620 colon,> 100 µM
same,GI50,SK-MEL-28 melanoma,12.2 µM
same,TGI,SK-MEL-28 melanoma,35.5 µM
same,GI50,SR leukemia,0.976 µM
same,TGI,SR leukemia,14 µM
same,GI50,M14 melanoma,6 µM
same,TGI,M14 melanoma,21 µM
same,GI50,HCC-2998 colon,13.1 µM
same,TGI,HCC-2998 colon,> 100 µM
same,GI50,HL-60(TB) leukemia,> 100 µM
same,TGI,HL-60(TB) leukemia,> 100 µM
same,GI50,UACC-62 melanoma,16.5 µM
same,TGI,UACC-62 melanoma,43.5 µM
same,GI50,SK-MEL-5 melanoma,24.7 µM
same,TGI,SK-MEL-5 melanoma,82.4 µM
same,GI50,TK-10 renal,1.61 µM
same,TGI,TK-10 renal,6.33 µM
same,GI50,UACC-257 melanoma,10.3 µM
same,TGI,UACC-257 melanoma,33.3 µM
same,GI50,RXF 393 renal,1.75 µM
same,TGI,RXF 393 renal,6.18 µM
same,GI50,RPMI-8226 leukemia,5.49 µM
same,TGI,RPMI-8226 leukemia,> 100 µM
same,GI50,HS 578T breast,1.6 µM
same,TGI,HS 578T breast,11 µM
same,GI50,NCI-H460 lung,0.806 µM
same,TGI,NCI-H460 lung,12.1 µM
same,GI50,786-0 renal,1.9 µM
same,TGI,786-0 renal,5.19 µM
same,GI50,LOX IMVI melanoma,2.98 µM
same,TGI,LOX IMVI melanoma,21.4 µM
same,GI50,CAKI-1 renal,0.486 µM
same,TGI,CAKI-1 renal,2.46 µM
same,GI50,KM12 colon,48.2 µM
same,TGI,KM12 colon,> 100 µM
same,GI50,EKVX NSCLC,1.73 µM
same,TGI,EKVX NSCLC,16.5 µM
same,GI50,OVCAR-3 ovarian,1.11 µM
same,TGI,OVCAR-3 ovarian,4.22 µM
same,GI50,OVCAR-8 ovarian,3.27 µM
same,TGI,OVCAR-8 ovarian,16.1 µM
same,GI50,T-47D breast,2.97 µM
same,TGI,T-47D breast,32.8 µM
same,GI50,SK-OV-3 ovarian,8.13 µM
same,TGI,SK-OV-3 ovarian,32.5 µM
same,GI50,NCI-H23 lung,6.35 µM
same,TGI,NCI-H23 lung,28.7 µM
same,GI50,SF-295 CNS,0.971 µM
same,TGI,SF-295 CNS,11.4 µM
same,GI50,ACHN renal,0.403 µM
same,TGI,ACHN renal,1.47 µM
same,GI50,SNB-75 CNS,1.24 µM
same,TGI,SNB-75 CNS,5.21 µM
same,GI50,SNB-19 CNS,2.45 µM
same,TGI,SNB-19 CNS,13.2 µM
same,GI50,OVCAR-4 ovarian,0.335 µM
same,TGI,OVCAR-4 ovarian,1.16 µM
same,GI50,MOLT-4 leukemia,11 µM
same,TGI,MOLT-4 leukemia,> 100 µM
same,GI50,HOP-62 NSCLC,2.1 µM
same,TGI,HOP-62 NSCLC,12.9 µM
same,GI50,MDA-MB-435,13 µM
same,TGI,MDA-MB-435,42.2 µM
same,GI50,IGROV1 ovarian,0.702 µM
same,TGI,IGROV1 ovarian,10 µM
same,GI50,HCT-116 colon,2.01 µM
same,TGI,HCT-116 colon,11.9 µM
same,GI50,MDA-MB-231 breast,2.25 µM
same,TGI,MDA-MB-231 breast,13 µM
same,GI50,SK-MEL-2 melanoma,13.7 µM
same,TGI,SK-MEL-2 melanoma,30.2 µM
same,GI50,K-562 leukemia,5.31 µM
same,TGI,K-562 leukemia,> 100 µM
same,GI50,SF-268 CNS,4.41 µM
same,TGI,SF-268 CNS,22.7 µM
same,GI50,PC-3 prostate,18.1 µM
same,TGI,PC-3 prostate,81.2 µM
same,GI50,MALME-3M melanoma,2.27 µM
same,TGI,MALME-3M melanoma,10.6 µM
same,GI50,SF-539 CNS,2.5 µM
same,TGI,SF-539 CNS,13.3 µM
same,GI50,HT29 colon,14.5 µM
same,TGI,HT29 colon,> 100 µM
same,GI50,HCT-15 colon,9.06 µM
same,TGI,HCT-15 colon,> 100 µM
same,GI50,NCI/ADR-RES ovarian,4.87 µM
same,TGI,NCI/ADR-RES ovarian,25.3 µM
same,GI50,CCRF-CEM leukemia,5.53 µM
same,TGI,CCRF-CEM leukemia,> 100 µM
same,GI50,NCI-H226 lung,3.79 µM
same,TGI,NCI-H226 lung,20.1 µM
same,GI50,A498 renal,1.19 µM
same,TGI,A498 renal,6.13 µM
same,GI50,UO-31 renal,2.04 µM
same,TGI,UO-31 renal,22.1 µM
same,GI50,OVCAR-5 ovarian,4.03 µM
same,TGI,OVCAR-5 ovarian,24 µM
same,GI50,SN12C renal,0.597 µM
same,TGI,SN12C renal,3.14 µM
same,GI50,COLO 205 colon,1.86 µM
same,TGI,COLO 205 colon,20.1 µM
same,GI50,NCI-H522 lung,14.4 µM
same,TGI,NCI-H522 lung,71.4 µM
same,GI50,U251 CNS,0.652 µM
same,TGI,U251 CNS,2.78 µM
same,GI50,MCF7 breast,22.8 µM
same,TGI,MCF7 breast,> 100 µM
same,GI50,HOP-92 NSCLC,0.605 µM
same,TGI,HOP-92 NSCLC,2.63 µM

# Source: PubChem BioAssay (NCI)
